Measured values: patent publication US8329704B2, “Substituted pyrazinone derivatives for use in MCH-1 mediated diseases” (Janssen Pharmaceutica, N.V., priority 2005, dated 2012)

Experiments:
MCH-1 receptor = target: T1, MCH-1 receptor (Rattus norvegicus, UniProt P97639); settings: rodents tests; Nat. Med. (2002) 8, 825-830; cited from earlier work
T1 construct: host or cells: rodents in vivo

human MCH-1 receptor = target: T2, human MCH-1 receptor (Homo sapiens, UniProt Q99705); assay: Ca2+ mobilization experiment for the MCH-1 receptor (FLIPR), inhibition of MCH-induced Ca2+ mobilization; type: cell-based; settings: CHO cells stably expressing human MCH-1 receptor, inhibition of MCH-induced Ca2+ response, read-out: MCH-1 pIC50 (converted)
T2 construct: expressed in transfected cells
Method in brief: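 Calcium-dye loading (kit with probenecid) of CHO cells stably expressing human MCH-1 ran 90 min at 37C. Cells were then preincubated with compound for 20 min at RT before a submaximal MCH challenge, and Ca2+ was recorded by FLIPR. Responses were expressed as % of compound-free response, and pIC50 came from sigmoidal fits.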

T2 sequence (Q99705 whole entry): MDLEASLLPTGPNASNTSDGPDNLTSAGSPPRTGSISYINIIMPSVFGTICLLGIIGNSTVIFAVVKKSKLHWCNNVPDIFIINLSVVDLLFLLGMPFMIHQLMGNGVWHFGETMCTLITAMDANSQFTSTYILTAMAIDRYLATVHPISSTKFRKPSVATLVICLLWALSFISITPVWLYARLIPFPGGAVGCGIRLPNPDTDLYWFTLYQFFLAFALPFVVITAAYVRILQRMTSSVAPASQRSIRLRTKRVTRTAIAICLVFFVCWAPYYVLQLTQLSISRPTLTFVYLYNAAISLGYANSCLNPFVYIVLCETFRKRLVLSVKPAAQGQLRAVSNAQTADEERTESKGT
T1 sequence (P97639 whole entry): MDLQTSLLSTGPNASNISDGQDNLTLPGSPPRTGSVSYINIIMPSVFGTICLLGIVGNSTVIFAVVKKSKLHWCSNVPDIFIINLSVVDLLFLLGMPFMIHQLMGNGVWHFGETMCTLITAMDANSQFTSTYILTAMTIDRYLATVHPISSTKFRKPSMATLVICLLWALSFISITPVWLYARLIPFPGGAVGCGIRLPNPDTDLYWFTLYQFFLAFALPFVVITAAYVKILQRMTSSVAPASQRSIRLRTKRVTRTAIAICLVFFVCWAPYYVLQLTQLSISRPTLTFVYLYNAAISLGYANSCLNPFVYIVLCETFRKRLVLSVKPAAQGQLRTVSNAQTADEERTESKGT

Row | IC50 (human MCH-1 receptor) [nM] | melting point [°C] | Compound | antidepressant- and anxiolytic-like effects (MCH-1 receptor)
1 | 31.6 | 105.5 | COc1cc(-n2ccnc(SCCc3ccccc3)c2=O)ccc1N1CCC(N(C)C(C)=O)C1 (centres unmarked) [6-08] | 
2 | 39.8 | 151.6 | COc1cc(-n2ccnc(NCCc3ccccc3)c2=O)ccc1OC1CCNC1 (centres unmarked) [3-31] | 
3 | 39.8 | 101.1 | COc1cc(-n2ccnc(NCCc3ccccc3)c2=O)ccc1OCCN1CCCC1 [2-04] | 
4 | 63.1 | > 300 | COc1cc(-n2ccnc(NCCc3ccccc3)c2=O)ccc1NCCCN1CCOCC1 [3-30] | 

More lines, now with the values behind:

Row | Compound | IC50 (human MCH-1 receptor) [nM] | melting point [°C] | antidepressant- and anxiolytic-like effects (MCH-1 receptor)
5 | COCC1=C(C(=O)OC)[C@H](c2ccc(F)c(F)c2)N(C(=O)NCCCN2CCC(c3cccc(NC(C)=O)c3)CC2)C(=O)N1 [SNAP-7941] |  |  | antidepressant- and axiolytic-like affects
6 | COc1cc(-n2ccnc(NCCc3ccccc3)c2=O)ccc1N1CCC(N2CCOCC2)C1 (centres unmarked) [3-21] | 79.4 | > 300 | 
7 | CN(CCO)CCOc1ccc(-n2ccnc(NCCOc3ccccc3)c2=O)cc1 [1-26] | 251 | 103.6 | 
8 | O=c1c(NCCOc2ccccc2)nccn1-c1ccc(OCCN2CCOCC2)cc1 [1-44] | 501 | 138.1 | 
9 | COc1cc(-n2ccnc(SCCc3ccccc3)c2=O)ccc1OCCN1CCCC1 [2-11] | 20 | 79.4 | 
